From patent US9261497B2, “Method of treating cancer with modulators of SCFSkp2” (New York University, priority 2012, dated 2016)

Legend:
[1] = target: T1, His6-Skp2-Skp1-Cks1 complex (Homo sapiens, UniProt P61024+Q13309); test: Surface plasmon resonance (SPR); format: binding; details: 1:1 interaction model; 25° C.
T1 construct: His6-tagged human Skp2 (residues 89-424); Human full-length Cks1 was produced as described; made in house

p27 in 501 Mel cells = test: Cycloheximide p27 half-life in 501 Mel cells; format: cell-based, human; details: pretreated 16 hours with 10 μM inhibitor, vehicle half-life 1 hour
Experimental: To assess the mechanism of p27 induction, cycloheximide half-lives were analyzed in 501 Mel cell lines pretreated with each inhibitor (10 μM) or 0.1% DMSO (vehicle). p27 degraded rapidly with a half-life of 1 hour with vehicle, and this rate was slowed by the inhibitors (FIG. 4C). […] Protein levels of Skp2 and Skp1 remained constant.
Whole cell extracts were prepared and immunoblotted as previously described Dorrello et al., “S6K1- and betaTRCP-mediated Degradation of PDCD4 Promotes Protein Translation and Cell Growth,” Science 314:467-471 (2006), which is hereby incorporated by reference in its entirety. For knockdown of Skp2 or p27, shRNAs were induced with 2 ng/ml doxycycline for 48 hours, with the last 16 hours co-treated with 0.1% Vehicle or 10 μM inhibitors as indicated. For cycloheximide chase, cells were pretreated 16 h with 0.1% Vehicle or 10 μM inhibitors, followed by 20 ng/ml cycloheximide (Sigma) and whole cell extracts collected for each time point. 20 ng/ml cycloheximide (Sigma) was added to each plate and whole cell extract was collected for each time point. Scanning densitometry was performed on immunoblots using Image J software. For cell cycle analysis, cells were treated with 0.1% Vehicle or 10 μM inhibitors for 16 h. […] Signal was detected using the Becton Dickson LSRII flow cytometer and cell cycle profiles were analyzed with FloJo.

p27 in ECC-1 cells = test: Cycloheximide p27 half-life in ECC-1 cells; format: cell-based, human; details: 18 h treatment, 20 μM CHX chase, control 3.2 h
Experimental: The endometrial carcinoma cell line (derived from a well-differentiated endometrioid Type I ECA) ECC-1 cells (ATCC, Manassas, Va.) were plated at a density of 3×10^5/well/6-well plate and grown in DMEM:F12 supplemented with 10% FBS (BioWest, Ocala, Fla.). The cell line was passaged in the laboratory for fewer than 6 months after receipt. […] The protocol was approved by The Institutional Review Board of NYU, informed consent was obtained, and the samples were identified and graded by two surgical pathologists and graded according to the WHO (I-III) for decreased glandular structure and nuclear atypia (Silverberg, “Hyperplasia and Carcinoma of the Endometrium,” Semin. Diagn. Pathol. 5:135-153 (1988), which is hereby incorporated by reference in its entirety). ECAs were plated at a density of 2.2×10^6 cells/6-well Primaria® plates (BD Biosciences, San Jose, Calif.) in McCoys 5A media without phenol red containing 10% charcoal-stripped FBS, 2 mM L-Glutamine (Invitrogen) and antimycotic antibiotic solution (Mediatech, Hendon, Va.). ECC-1 cells and primary ECA cells were grown to 70-80% confluence, synchronized in serum-free media for 24 h, treated with 10 […] Skp2E3LIs for 18 h or as indicated in the figures. […] Whole cell lysates were collected at increasing time points (0, 2, 4, 6 h) and 20 μg protein/well analyzed for p27 by immunoblotting.

ECC-1 cells = test: ECC-1 cell proliferation (MTS assay); format: cell-based, human; details: for Inhibition of cellular proliferation over the Vehicle control: 10 μM (FIG. 13A); for Blocking E2-induced proliferation: compound plus E2 (FIG. 14D)
p27 in primary ECA cells = test: p27 immunoblot in primary endometrial carcinoma (ECA) cells; details: 10 μM for 18 h; for Increase of p27 levels over the Vehicle-treated control: grade I, total cell lysates; for Decrease of p27 in the cytoplasm / Increase of nuclear p27: grade II type I
Experimental: The endometrial carcinoma cell line (derived from a well-differentiated endometrioid Type I ECA) ECC-1 cells (ATCC, Manassas, Va.) were plated at a density of 3×10^5/well/6-well plate and grown in DMEM:F12 supplemented with 10% FBS (BioWest, Ocala, Fla.). The cell line was passaged in the laboratory for fewer than 6 months after receipt. […] ECAs were plated at a density of 2.2×10^6 cells/6-well Primaria® plates (BD Biosciences, San Jose, Calif.) in McCoys 5A media without phenol red containing 10% charcoal-stripped FBS, 2 mM L-Glutamine (Invitrogen) and antimycotic antibiotic solution (Mediatech, Hendon, Va.).
For subcellular fractionation, following treatments, cells were separated into nuclear and cytoplasmic fractions using the NE-PER kit (Thermo Scientific), and 10 μg cytoplasmic and nuclear protein fractions were loaded onto SDS-PAGE for immunoblotting. […] The membranes were incubated with peroxidase-conjugated goat anti-rabbit or goat anti-mouse secondary antibodies in TBST (1:2000; Thermo Scientific). […] Protein bands were resolved using the SuperSignal West Dura kit (Thermo Scientific), visualized by exposure to X-ray film (HyBlot; Denville Scientific, Denville, N.J.), and following densitometric scanning (Kodak Logic-100), the protein bands were quantified by normalizing to β-actin and compared to the untreated control, and the values represented by the graphs of relative protein levels compared to actin in each well and shown as % of Vehicle control.

JeKo-1 = test: Cell viability, JeKo-1 mantle cell lymphoma; format: cell-based, human; details: 24 hours, CalcuSyn
Experimental: (§1) Viable and metabolically active cells were assayed using CellTiter-Blue (Promega) or PrestoBlue (Invitrogen) following manufacturer's instruction. In a 96 well plate format, 15×10^3 cells were pretreated with 0.1% Vehicle or increasing concentration of inhibitors as noted (for 16 h, 24 h, 48 h, and/or 72 hr) and fluorescence was detected on the SpectraMax M2e (Molecular Devices) after 30 min incubation with dye.

LNCaP = test: Cell cycle FACS analysis, LNCaP; format: cell-based, human; details: 10 μM for 16 hours
Experimental: Whole cell extracts were prepared and immunoblotted as previously described Dorrello et al., “S6K1- and betaTRCP-mediated Degradation of PDCD4 Promotes Protein Translation and Cell Growth,” Science 314:467-471 (2006), which is hereby incorporated by reference in its entirety. For knockdown of Skp2 or p27, shRNAs were induced with 2 ng/ml doxycycline for 48 hours, with the last 16 hours co-treated with 0.1% Vehicle or 10 μM inhibitors as indicated. For cycloheximide chase, cells were pretreated 16 h with 0.1% Vehicle or 10 μM inhibitors, followed by 20 ng/ml cycloheximide (Sigma) and whole cell extracts collected for each time point. Scanning densitometry was performed on immunoblots using Image J software. For cell cycle analysis, cells were treated with 0.1% Vehicle or 10 μM inhibitors for 16 h. 1×10^6 cells were fixed in 70% ethanol for 2 h, treated with 200 μg/ml RNase A (Invitrogen) for 30 minutes, and stained with 20 μg/ml Propidium Iodine (Sigma). All samples were assayed in triplicates. Signal was detected using the Becton Dickson LSRII flow cytometer and cell cycle profiles were analyzed with FloJo.

His-6Skp1-Skp2-Cks1 = target: T2, His-6Skp1-Skp2-Cks1 (Homo sapiens, UniProt P61024+Q13309); test: Differential scanning fluorimetry (protein melt); format: binding; details: compound 75 μM; protein 1.5 μM
T2 construct: His6-tagged human Skp2 (residues 89-424); Human full-length Cks1 was produced as described; made in house
T2 sequence (Q13309 89-424 limits assumed): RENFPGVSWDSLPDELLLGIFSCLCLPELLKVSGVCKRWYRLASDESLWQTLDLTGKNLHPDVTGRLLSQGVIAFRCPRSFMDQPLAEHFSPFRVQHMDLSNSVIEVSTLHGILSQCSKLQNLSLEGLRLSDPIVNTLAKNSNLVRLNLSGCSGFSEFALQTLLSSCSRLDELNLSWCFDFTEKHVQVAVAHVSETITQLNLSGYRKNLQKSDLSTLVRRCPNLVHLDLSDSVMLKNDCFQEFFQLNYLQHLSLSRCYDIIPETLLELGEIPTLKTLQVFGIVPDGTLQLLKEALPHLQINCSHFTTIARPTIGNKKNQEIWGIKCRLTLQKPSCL
T2 sequence (P61024 whole entry, the tested form may be a part): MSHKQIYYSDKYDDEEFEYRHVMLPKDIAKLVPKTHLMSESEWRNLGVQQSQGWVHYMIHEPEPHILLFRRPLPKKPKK
Experimental: Protein melt assays were carried out following the manufacturer's protocol on the LightCycler 480 System II (Roche) using Sypro Orange dye (Sigma). Fluorescence (465 nm excitation/580 nm detection) was acquired (10 data points/sec) at a ramp rate of 0.06° C./sec between 20° C. and 85° C. Melting temperatures were calculated using the LightCycler 480 Protein Melt analysis tool (Roche).

KSM-11 = test: Viable cells, multiple myeloma KSM-11; format: cell-based, human; details: 24 hours
Experimental: as §1

ARP-1 = test: Viable cells, multiple myeloma ARP-1; format: cell-based, human; details: 24 hours
Experimental: as §1

MCF-7 = test: Viable and metabolically active cells, MCF-7; format: cell-based, human; details: 16 h
Experimental: as §1

T1 sequence (Q13309 89-424 limits assumed): as the sequence (Q13309 89-424 limits assumed) above
T1 sequence (P61024 whole entry, the tested form may be a part): as the sequence (P61024 whole entry, the tested form may be a part) above

## O=C(NN=Cc1cc(Br)cc(Br)c1O)C(=Cc1ccccc1O)NC(=O)c1ccccc1 [Compound C20]
[1]
  Kd: 47 ± 14 µM
p27 in 501 Mel cells
  p27 half-life: 5 h
p27 in ECC-1 cells
  Extension of p27 half-life over cycloheximide (CHX) control: 2.7 h
ECC-1 cells
  Inhibition of cellular proliferation over the Vehicle control: 30%
  Blocking E2-induced proliferation: equal to the effect of blocking ER activation with ICI 182,780
p27 in primary ECA cells
  Increase of p27 levels over the Vehicle-treated control: 3 fold
  Decrease of p27 in the cytoplasm: approximately 25%
  Increase of nuclear p27: 46%

## O=C(O)COc1ccc(C=C2SC(=O)N(CC(=O)c3ccc(Cl)cc3)C2=O)cc1 [Compound C16]
p27 in 501 Mel cells
  p27 half-life: 3 h

## COC(=O)C1=C(C)N(c2ccc(Br)cc2)C(=O)C1=Cc1ccccc1O [Compound C2]
JeKo-1
  IC50: 9.3 µM
LNCaP
  G1 cells: a mild, but significant, increase in G1 cells
  S phase cells: a reduction in S phase cells
p27 in ECC-1 cells
  Extension of p27 half-life over cycloheximide (CHX) control: 6.1 h
ECC-1 cells
  Inhibition of cellular proliferation over the Vehicle control: 33%
  Blocking E2-induced proliferation: equal to the effect of blocking ER activation with ICI 182,780
ECC-1 cells; Hillslope method, read-out: EC50 inhibiting proliferation
  EC50: 14.3 µM
p27 in primary ECA cells
  Increase of p27 levels over the Vehicle-treated control: 1.9 fold
  Decrease of p27 in the cytoplasm: approximately 25%
  Increase of nuclear p27: 67%

## O=C(O)COc1ccc(Br)cc1C=C1SC(=S)N(Cc2cccnc2)C1=O [Compound C1]
His-6Skp1-Skp2-Cks1
  Shift of melting temperature (Tm) of purified protein complex: shifted the melting temperature
KSM-11
  IC50: 1.84 µM
ARP-1
  IC50: 3.84 µM
JeKo-1
  IC50: 4.8 µM
MCF-7
  Rate of active cells: a lower rate of active cells
